Results reported in patent US8278345B2, “Inhibitors of glutaminyl cyclase” (Probiodrug AG, priority 2006, dated 2012).

What follows are molecules tested against hQC (Homo sapiens, UniProt Q16769) (assay: Inhibitor assay for glutaminyl cyclase activity (fluorometric, H-Gln-βNA / H-Gln-AMC)). Conditions: compound from preparative synthesis, purified; read-out: IC50 hQC.
Sequence of hQC (Q16769 29-361): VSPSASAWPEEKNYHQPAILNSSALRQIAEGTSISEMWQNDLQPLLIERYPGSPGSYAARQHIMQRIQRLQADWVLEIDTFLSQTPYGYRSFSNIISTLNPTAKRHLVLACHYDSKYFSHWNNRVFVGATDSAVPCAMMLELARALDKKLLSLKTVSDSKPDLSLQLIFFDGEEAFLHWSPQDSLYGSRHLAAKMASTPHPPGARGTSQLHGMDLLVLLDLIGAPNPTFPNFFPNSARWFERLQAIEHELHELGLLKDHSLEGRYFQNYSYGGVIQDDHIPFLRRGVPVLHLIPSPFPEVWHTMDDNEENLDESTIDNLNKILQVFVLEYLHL
Assay type: biochemical
Method in brief: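 Coupled fluorometric assay at 30 °C with pyroglutamyl aminopeptidase, in Tris/HCl pH 8.0 with EDTA, substrate H-Gln-βNA (0.2 mM; ex/em 320/410 nm) or H-Gln-AMC (ex/em 380/460 nm), initiated by QC. Screening: 4 mM inhibitor, substrate at 1 KM; Ki from progress curves fitted to competitive inhibition.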
For `O=C(C1=C(O)C(=O)N(c2ccc3[nH]cnc3c2)C1c1ccc(Cl)c(Cl)c1)C1CCCCC1` (stereo not drawn) [Compound 372, 1-(1H-Benzoimidazol-5-yl)-4-cyclohexanecarbonyl-5-(3,4-dichloro-phenyl)-3-hydroxy-1,5-dihydro-pyrrol-2-one], the IC50 was 0.0133 µM.
With `CCCCCC1=C(O)C(=O)N(CCCn2ccnc2)C1c1ccc(O)cc1` (stereo not drawn) [Compound 218, 3-Hydroxy-5-(4-hydroxy-phenyl)-1-(3-imidazol-1-yl-propyl)-4-pentyl-1,5-dihydro-pyrrol-2-one] the IC50 was 0.613 µM.

Same assay, conditions: read-out: IC50
`CC(C)C1=C(O)C(=O)N(c2ccc3[nH]cnc3c2)C1C1COC(C)(C)O1` (stereo not drawn) [Compound 300, 1-(1H-Benzoimidazol-5-yl)-5-(2,2-dimethyl-[1,3]dioxolan-4-yl)-3-hydroxy-4-isopropyl-1,5-dihydro-pyrrol-2-one] was tested, and the IC50 was 0.004 µM.
With `O=C1C(O)=C(c2ccccc2)C(C2=CCCCC2)N1CCCn1ccnc1` (stereo not drawn) [Compound 94, 5-Cyclohex-1-enyl-3-hydroxy-1-(3-imidazol-1-yl-propyl)-4-phenyl-1,5-dihydro-pyrrol-2-one] the IC50 was 4.9 µM.
`CC(=O)C1=C(O)C(=O)N(c2ccc3[nH]cnc3c2)C1c1cc[n+]([O-])cc1` (stereo not drawn) [Compound 397, 4-Acetyl-1-(1H-benzoimidazol-5-yl)-3-hydroxy-5-(1-oxy-pyridin-4-yl)-1,5-dihydro-pyrrol-2-one] was tested, and the IC50 was 1.21 µM.
With `CC1=C(O)C(=O)N(CCCn2ccnc2)C1c1cccc(O)c1` (stereo not drawn) [Compound 53, 3-Hydroxy-5-(3-hydroxy-phenyl)-1-(3-imidazol-1-yl-propyl)-4-methyl-1,5-dihydro-pyrrol-2-one] the IC50 was 1.3 µM.
In the case of `Cc1cccc(C2C(c3ccc(O)cc3)=C(O)C(=O)N2c2ccc3[nH]cnc3c2)c1` (stereo not drawn) [Compound 429, 1-(1H-Benzoimidazol-5-yl)-3-hydroxy-4-(4-hydroxy-phenyl)-5-m-tolyl-1,5-dihydro-pyrrol-2-one], the IC50 is reported as 1.39 µM.
`O=C1C(O)=C(c2ccccc2)C(c2cccs2)N1CCCn1ccnc1` (stereo not drawn) [Compound 103, 3-Hydroxy-1-(3-imidazol-1-yl-propyl)-4-phenyl-5-thiophen-2-yl-1,5-dihydro-pyrrol-2-one] showed an IC50 of 1.3 µM.
`O=C1C(O)=C(c2cccc(O)c2)C(C2CC2)N1CCCn1ccnc1` (stereo not drawn) [Compound 19, 5-Cyclopropyl-3-hydroxy-4-(3-hydroxy-phenyl)-1-(3-imidazol-1-yl-propyl)-1,5-dihydro-pyrrol-2-one] showed an IC50 of 1.3 µM.
For `CC(C)(C)C(=O)C1=C(O)C(=O)N(c2ccc3[nH]cnc3c2)C1c1cc[nH]n1` (stereo not drawn) [Compound 405, 1-(1H-Benzoimidazol-5-yl)-4-(2,2-dimethyl-propionyl)-3-hydroxy-5-(1H-pyrazol-3-yl)-1,5-dihydro-pyrrol-2-one], the IC50 was 2.2 µM.
`O=C(C1=C(O)C(=O)N(c2ccc3[nH]cnc3c2)C1c1ccc(Cl)c(Cl)c1)C1CCCCC1` (stereo not drawn) [Compound 372, 1-(1H-Benzoimidazol-5-yl)-4-cyclohexanecarbonyl-5-(3,4-dichloro-phenyl)-3-hydroxy-1,5-dihydro-pyrrol-2-one] showed an IC50 of 0.4 µM.
For `CCC1=C(O)C(=O)N(CCCn2ccnc2)C1C` (stereo not drawn) [Compound 233, 4-Ethyl-3-hydroxy-1-(3-imidazol-1-yl-propyl)-5-methyl-1,5-dihydro-pyrrol-2-one], the IC50 was 2.2 µM.
Work on `CCCC1C(c2ccc(O)cc2)=C(O)C(=O)N1CCCn1ccnc1` (stereo not drawn) [Compound 150, 3-Hydroxy-4-(4-hydroxy-phenyl)-1-(3-imidazol-1-yl-propyl)-5-propyl-1,5-dihydro-pyrrol-2-one] yielded an IC50 of 0.04 µM.
With `CCCC(=O)C1=C(O)C(=O)N(c2ccc3[nH]cnc3c2)C1c1ccc(O)c(Br)c1` (stereo not drawn) [Compound 344, 1-(1H-Benzoimidazol-5-yl)-5-(3-bromo-4-hydroxy-phenyl)-4-butyryl-3-hydroxy-1,5-dihydro-pyrrol-2-one] the IC50 was 0.4 µM.
`Cc1ccc2occ(C3C(c4ccc(O)cc4)=C(O)C(=O)N3c3ccc4[nH]cnc4c3)c(=O)c2c1` (stereo not drawn) [Compound 280, 1-(1H-Benzoimidazol-5-yl)-3-hydroxy-4-(4-hydroxy-phenyl)-5-(6-methyl-4-oxo-4H-chromen-3-yl)-1,5-dihydro-pyrrol-2-one] was tested, and the IC50 was 0.31 µM.
`O=C1C(O)=C(c2ccccc2)C(c2ccc3cccc(O)c3n2)N1c1ccc2[nH]cnc2c1` (stereo not drawn) [Compound 398, 1-(1H-Benzoimidazol-5-yl)-3-hydroxy-5-(8-hydroxy-quinolin-2-yl)-4-phenyl-1,5-dihydro-pyrrol-2-one] was tested, and the IC50 was 0.04 µM.
`CCC/C=C/C1C(c2cccc(O)c2)=C(O)C(=O)N1CCCn1ccnc1` (stereo not drawn) [Compound 6, 3-Hydroxy-4-(3-hydroxy-phenyl)-1-(3-imidazol-1-yl-propyl)-5-(pent-1-enyl)-1,5-dihydro-pyrrol-2-one] gave an IC50 of 5.8 µM.
`COc1ccc(C2C(C(C)C)=C(O)C(=O)N2CCCn2ccnc2)cc1` (stereo not drawn) [Compound 59, 3-Hydroxy-1-(3-imidazol-1-yl-propyl)-4-isopropyl-5-(4-methoxy-phenyl)-1,5-dihydro-pyrrol-2-one] showed an IC50 of 0.4 µM.
Molecule `Cc1ccc(O)c(C2C(C(=O)C3CC3)=C(O)C(=O)N2c2ccc3[nH]cnc3c2)c1` (stereo not drawn) [Compound 343, 1-(1H-Benzoimidazol-5-yl)-4-cyclopropanecarbonyl-3-hydroxy-5-(2-hydroxy-5-methyl-phenyl)-1,5-dihydro-pyrrol-2-one] has an IC50 of 3.28 µM.
Molecule `O=C1C(O)=C(c2cccc(O)c2)C(c2cc(Cl)cc(Cl)c2O)N1CCCn1ccnc1` (stereo not drawn) [Compound 4, 5-(3,5-Dichloro-2-hydroxy-phenyl)-3-hydroxy-4-(3-hydroxy-phenyl)-1-(3-imidazol-1-yl-propyl)-1,5-dihydro-pyrrol-2-one] has an IC50 of 2.2 µM.
Molecule `O=C1C(O)=C(c2ccc(O)cc2)C(c2ncc[nH]2)N1CCCn1ccnc1` (stereo not drawn) [Compound 168, 3-Hydroxy-4-(4-hydroxy-phenyl)-5-(1H-imidazol-2-yl)-1-(3-imidazol-1-yl-propyl)-1,5-dihydro-pyrrol-2-one] has an IC50 of 2.2 µM.
`Cc1cc(C2C(C(C)C)=C(O)C(=O)N2c2ccc3[nH]cnc3c2)oc1C` (stereo not drawn) [Compound 388, 1-(1H-Benzoimidazol-5-yl)-5-(4,5-dimethyl-furan-2-yl)-3-hydroxy-4-isopropyl-1,5-dihydro-pyrrol-2-one] gave an IC50 of 3.19 µM.
In the case of `CCCCCC1=C(O)C(=O)N(c2ccc3[nH]cnc3c2)C1c1ccco1` (stereo not drawn) [Compound 456, 1-(1H-Benzoimidazol-5-yl)-5-furan-2-yl-3-hydroxy-4-pentyl-1,5-dihydro-pyrrol-2-one], the IC50 is reported as 4.63 µM.
In the case of `O=C(C1=C(O)C(=O)N(c2ccc3[nH]cnc3c2)C1c1ccc(CO)o1)C1CCCCC1` (stereo not drawn) [Compound 303, 1-(1H-Benzoimidazol-5-yl)-4-cyclohexanecarbonyl-3-hydroxy-5-(5-hydroxymethyl-furan-2-yl)-1,5-dihydro-pyrrol-2-one], the IC50 is reported as 0.4 µM.
For `O=C1C(O)=C(c2ccccc2)C(c2ccccn2)N1CCCn1ccnc1` (stereo not drawn) [Compound 101, 3-Hydroxy-1-(3-imidazol-1-yl-propyl)-4-phenyl-5-pyridin-2-yl-1,5-dihydro-pyrrol-2-one], the IC50 was 0.4 µM.
`O=C1C(O)=C(c2c[nH]c3ccccc23)C(c2ccncc2)N1CCCn1ccnc1` (stereo not drawn) [Compound 136, 3-Hydroxy-1-(3-imidazol-1-yl-propyl)-4-(1H-indol-3-yl)-5-pyridin-4-yl-1,5-dihydro-pyrrol-2-one] showed an IC50 of 0.04 µM.
With `O=C1C(O)=C(c2cccc(O)c2)C(c2ccccc2O)N1CCCn1ccnc1` (stereo not drawn) [Compound 14, 3-Hydroxy-5-(2-hydroxy-phenyl)-4-(3-hydroxy-phenyl)-1-(3-imidazol-1-yl-propyl)-1,5-dihydro-pyrrol-2-one] the IC50 was 2.2 µM.
Work on `CC(=O)C1=C(O)C(=O)N(c2ccc3[nH]cnc3c2)C1c1ccc(C(=O)O)o1` (stereo not drawn) [Compound 410, 5-[3-Acetyl-1-(1H-benzoimidazol-5-yl)-4-hydroxy-5-oxo-2,5-dihydro-1H-pyrrol-2-yl]-furan-2-carboxylic acid] yielded an IC50 of 1.03 µM.
Molecule `CCCCCC1=C(O)C(=O)N(CCCn2ccnc2)C1c1ccc(O)cc1` (stereo not drawn) [Compound 218, 3-Hydroxy-5-(4-hydroxy-phenyl)-1-(3-imidazol-1-yl-propyl)-4-pentyl-1,5-dihydro-pyrrol-2-one] has an IC50 of 0.04 µM.
`CC(C)(C)C(=O)C1=C(O)C(=O)N(c2ccc3[nH]cnc3c2)C1c1cccc(F)c1F` (stereo not drawn) [Compound 383, 1-(1H-Benzoimidazol-5-yl)-5-(2,3-difluoro-phenyl)-4-(2,2-dimethyl-propionyl)-3-hydroxy-1,5-dihydro-pyrrol-2-one] showed an IC50 of 4.09 µM.
Molecule `CCC/C=C/C1C(CC)=C(O)C(=O)N1CCCn1ccnc1` (stereo not drawn) [Compound 222, 4-Ethyl-3-hydroxy-1-(3-imidazol-1-yl-propyl)-5-(pent-1-enyl)-1,5-dihydro-pyrrol-2-one] has an IC50 of 3.1 µM.
In the case of `CC1C(c2c[nH]c3ccccc23)=C(O)C(=O)N1CCCn1ccnc1` (stereo not drawn) [Compound 125, 3-Hydroxy-1-(3-imidazol-1-yl-propyl)-4-(1H-indol-3-yl)-5-methyl-1,5-dihydro-pyrrol-2-one], the IC50 is reported as 0.4 µM.
Work on `CCCC(=O)C1=C(O)C(=O)N(c2ccc3[nH]cnc3c2)C1c1ccc(CO)o1` (stereo not drawn) [Compound 432, 1-(1H-Benzoimidazol-5-yl)-4-butyryl-3-hydroxy-5-(5-hydroxymethyl-furan-2-yl)-1,5-dihydro-pyrrol-2-one] yielded an IC50 of 2.65 µM.
In the case of `O=C1C(O)=C(c2c[nH]c3ccccc23)C(c2cc[nH]n2)N1CCCn1ccnc1` (stereo not drawn) [Compound 116, 3-Hydroxy-1-(3-imidazol-1-yl-propyl)-4-(1H-indol-3-yl)-5-(1H-pyrazol-3-yl)-1,5-dihydro-pyrrol-2-one], the IC50 is reported as 0.4 µM.
Molecule `CC1=C(O)C(=O)N(CCCn2ccnc2)C1c1ccco1` (stereo not drawn) [Compound 47, 5-(Furan-2-yl-)3-hydroxy-1-(3-imidazol-1-yl-propyl)-4-methyl-1,5-dihydro-pyrrol-2-one] has an IC50 of 0.4 µM.
For `CCC1=C(O)C(=O)N(CCCn2ccnc2)C1c1cccc(O)c1` (stereo not drawn) [Compound 252, 4-Ethyl-3-hydroxy-5-(3-hydroxy-phenyl)-1-(3-imidazol-1-yl-propyl)-1,5-dihydro-pyrrol-2-one], the IC50 was 0.4 µM.
In the case of `CCC1C(c2ccc(O)cc2)=C(O)C(=O)N1CCCn1ccnc1` (stereo not drawn) [Compound 178, 5-Ethyl-3-hydroxy-4-(4-hydroxy-phenyl)-1-(3-imidazol-1-yl-propyl)-1,5-dihydro-pyrrol-2-one], the IC50 is reported as 0.4 µM.
`CCC1=C(O)C(=O)N(CCCn2ccnc2)C1C1=CCCCC1` (stereo not drawn) [Compound 238, 5-Cyclohex-1-enyl-4-ethyl-3-hydroxy-1-(3-imidazol-1-yl-propyl)-1,5-dihydro-pyrrol-2-one] showed an IC50 of 0.04 µM.
Molecule `CCCC1C(c2ccccc2)=C(O)C(=O)N1CCCn1ccnc1` (stereo not drawn) [Compound 80, 3-Hydroxy-1-(3-imidazol-1-yl-propyl)-4-phenyl-5-propyl-1,5-dihydro-pyrrol-2-one] has an IC50 of 0.4 µM.
